Activity calls are given as the source filed them. The rule behind the calls is not given here.
What was measured:
[1] = target: T1, Mushroom tyrosinase (Agaricus bisporus, UniProt O42713+Q00024+C7FF04+C7FF05); test: Inhibition of mushroom tyrosinase using L-DOPA as substrate incubated for 30 mins by absorbance based microplate reader analysis; type: protein assay
[2] = target: T1, Mushroom tyrosinase; test: Inhibition of mushroom tyrosinase using L-tyrosine as substrate incubated for 30 mins by absorbance based microplate reader analysis; type: protein assay
[3] = test system: B16-F10; test: Cytotoxicity against mouse B16-F10 cells assessed as reduction in cell viability at <=20 uM incubated for 72 hrs by EZ-Cytox assay; type: toxicity, cell-based; conditions: b16-f10, 72 h
[4] = Cytotoxicity against human HaCaT cells assessed as cell viability at 20 uM incubated for 24 hrs by EZ-Cytox assay relative to control; type: toxicity, cell-based; conditions: read-out: Activity
[5] = Antioxidant activity assessed as ABTS radical scavenging activity at 100 uM preincubated under dark condition for 2 mins and measured every 1 min for 10 mins by absorbance based microplate reader analysis relative to control; type: functional; conditions: time 12.0 min
[6] = target: T2, Mushroom tyrosinase (Agaricus bisporus) (UniProt O42713+Q00024+C7FF04+C7FF05); test: Potency index, ratio of kojic acid IC50 to test compound IC50 for inhibition of mushroom tyrosinase using L-DOPA as substrate incubated for 30 mins by absorbance based microplate reader analysis; type: protein assay
[7] = test system: B16-F10; test: Antimelanogenic activity against IBMX/[…] stimulated mouse B16-F10 cells assessed as reduction in intracellular melanin content preincubated for 1 hr followed by IBMX/[…] addition and measured after 72 hrs by microplate reader analysis; type: functional, cell-based; conditions: dose 5-20 µM, time 73.0 hrs
[8] = target: T3, Tyrosinase (Mus musculus) (UniProt P11344); test: Inhibition of tyrosinase activity in IBMX/[…] stimulated mouse B16-F10 cells preincubated for 1 hr followed by IBMX/[…] addition and measured after 72 hrs by microplate reader assay; type: cell-based; conditions: dose 5-20 µM, time 73.0 hrs
T3 sequence (whole entry): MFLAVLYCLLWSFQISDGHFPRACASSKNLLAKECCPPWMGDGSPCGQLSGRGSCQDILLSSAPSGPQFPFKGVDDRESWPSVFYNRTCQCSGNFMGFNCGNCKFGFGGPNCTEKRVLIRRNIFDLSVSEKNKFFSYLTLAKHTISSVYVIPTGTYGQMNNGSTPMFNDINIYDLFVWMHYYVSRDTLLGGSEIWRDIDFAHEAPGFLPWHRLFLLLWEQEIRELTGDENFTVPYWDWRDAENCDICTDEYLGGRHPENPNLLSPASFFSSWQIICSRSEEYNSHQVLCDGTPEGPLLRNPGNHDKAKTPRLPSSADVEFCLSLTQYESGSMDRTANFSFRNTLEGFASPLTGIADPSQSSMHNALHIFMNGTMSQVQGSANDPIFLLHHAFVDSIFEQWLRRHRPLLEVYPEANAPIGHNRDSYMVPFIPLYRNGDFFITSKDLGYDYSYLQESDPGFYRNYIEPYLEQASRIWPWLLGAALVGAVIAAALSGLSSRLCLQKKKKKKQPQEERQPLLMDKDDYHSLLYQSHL

[9] = test system: HaCaT; test: Cytotoxicity against human HaCaT cells assessed as reduction in cell viability at 5 to 20 uM incubated for 24 hrs by EZ-Cytox assay; type: toxicity, cell-based; conditions: dose 5-20 µM
[10] = target: T2, Mushroom tyrosinase (Agaricus bisporus); test: Potency index, ratio of phenylthiourea IC50 to test compound IC50 for inhibition of mushroom tyrosinase using L-tyrosine as substrate incubated for 30 mins by absorbance based microplate reader analysis; type: protein assay
[11] = target: T2, Mushroom tyrosinase (Agaricus bisporus); test: Inhibition of mushroom tyrosinase using L-DOPA as substrate at 500 nM incubated for 30 mins by absorbance based microplate reader analysis relative to control; type: protein assay
[12] = target: T2, Mushroom tyrosinase (Agaricus bisporus); test: Inhibition of mushroom tyrosinase using L-DOPA as substrate at 500 nM incubated for 30 mins in presence of CuSO4 by absorbance based microplate reader analysis relative to control; type: protein assay
[13] = target: T2, Mushroom tyrosinase (Agaricus bisporus); test: Mixed-type inhibition of mushroom tyrosinase using L-DOPA as substrate assessed as decrease in Vmax with increase in Km upto 1.8 uM using varying concentrations of substrate by Lineweaver-Burk plot analysis; type: protein assay
[14] = target: T1, Mushroom tyrosinase; test: Binding affinity to mushroom tyrosinase using L-DOPA as substrate assessed as inhibition constant by Dixon plot analysis; type: protein assay
[15] = Cytotoxicity against human HaCaT cells assessed as cell viability at 5 uM incubated for 24 hrs by EZ-Cytox assay relative to control; type: toxicity, cell-based; conditions: read-out: Activity
[16] = Cytotoxicity against human HaCaT cells assessed as cell viability at 10 uM incubated for 24 hrs by EZ-Cytox assay relative to control; type: toxicity, cell-based; conditions: read-out: Activity
[17] = target: T2, Mushroom tyrosinase (Agaricus bisporus); test: Competitive inhibition of mushroom tyrosinase using L-DOPA as substrate assessed as increase in Km with constant Vmax upto 0.2 uM using varying concentrations of substrate by Lineweaver-Burk plot analysis; type: protein assay
[18] = target: T2, Mushroom tyrosinase (Agaricus bisporus); test: Potency index, ratio of phenylthiourea IC50 to test compound IC50 for inhibition of mushroom tyrosinase; type: protein assay
[19] = target: T2, Mushroom tyrosinase (Agaricus bisporus); test: Mixed-type inhibition of mushroom tyrosinase using L-DOPA as substrate assessed as decrease in Vmax with increase in Km upto 0.2 uM using varying concentrations of substrate by Lineweaver-Burk plot analysis; type: protein assay

O=[N+]([O-])c1cccc2oc(S)nc12
IC50 [1]: 23840 nM
IC50 [2]: 14800 nM
Activity [3]: Non-Toxic
viability at 24 h, 20 µM [4]: 94%
Activity [5]: 34%

Cc1cccc2oc(S)nc12
IC50 [1]: 2150 nM
IC50 [2]: 2850 nM
Ratio IC50 [6]: 16
Activity [3]: Non-Toxic
Activity [7]: Dose-Dependent Effect
inhibition [8]: Dose-Dependent Effect
Activity [9]: Non-Toxic
Activity [5]: 49%

Cc1ccc2oc(=S)[nH]c2c1
IC50 [1]: 90 nM
IC50 [2]: 100 nM
Ratio IC50 [10]: 3
Activity [3]: Non-Toxic
Activity [9]: Non-Toxic
inhibition [11]: > 92%
inhibition [12]: 26%
inhibition [13]: Active
Ki [14]: 142 nM
Activity [5]: 49%

O=[N+]([O-])c1ccc2oc(=S)[nH]c2c1
IC50 [1]: 5810 nM
IC50 [2]: 2410 nM
Activity [3]: Non-Toxic
viability at 24 h, 5 µM [15]: 91%
viability at 24 h, 10 µM [16]: 91%
viability at 24 h, 20 µM [4]: 84%
Activity [5]: 49%

Sc1nc2ccccc2o1
IC50 [1]: 80 nM
IC50 [2]: 240 nM
Ratio IC50 [6]: 440
Activity [3]: Non-Toxic
Activity [9]: Non-Toxic
inhibition [11]: > 92%
inhibition [12]: 26%
inhibition [17]: Active
Ki [14]: 58 nM
Activity [5]: 49%

S=c1[nH]c2ccc(Cl)cc2o1
IC50 [1]: 6250 nM
IC50 [2]: 2020 nM
Activity [3]: Non-Toxic
Activity [9]: Non-Toxic
Activity [5]: 49%

O=[N+]([O-])c1ccc2nc(S)oc2c1
IC50 [1]: 13760 nM
IC50 [2]: 12250 nM
Activity [3]: Non-Toxic
Activity [7]: Dose-Dependent Effect
inhibition [8]: Dose-Dependent Effect
Activity [9]: Non-Toxic
Activity [5]: 49%

Cc1c(C)c2c(c(C)c1O)CCC(C)(C(=O)O)O2 (stereo not given)
Activity [5]: 49%

Cc1ccc2[nH]c(=S)oc2c1
IC50 [1]: 80 nM
IC50 [2]: 130 nM
Activity [3]: Non-Toxic
Activity [7]: Dose-Dependent Effect
Ratio IC50 [18]: 2
inhibition [8]: Dose-Dependent Effect
Activity [9]: Non-Toxic
inhibition [11]: > 92%
inhibition [12]: 26%
inhibition [19]: Active
Ki [14]: 98 nM
Activity [5]: 49%

Reference: ChEMBL document CHEMBL5576104, “Design, synthesis, and anti-melanogenic efficacy of 2-mercaptobenzoxazoles with nanomolar tyrosinase activity inhibition” (Bioorg Med Chem, 2024)
